# Reference: PubChem BioAssay (NCI)
#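 Values below derive from 48-hour exposures of cells grown in 96-well plates, with endpoints linearly interpolated between the two concentrations bracketing the appropriate inhibition level. TGI: total growth inhibition.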 *1 amine or outer side, *2 acyl side, *3 side chain or, on linkers, in order; H or OH if unused. Where a SMILES comes first, the peptide text is derived from it. [ ]: non-standard residue; d: D form. ξ: configuration not given here. X22 = O=C(C(CC(O)CO)O[*:1])[*:2]; Ile(3ξ) = CCC(C)[C@H](N)C(=O)O; NMeV = CN[C@H](C(=O)O)C(C)C; NMeA = CN[C@@H](C)C(=O)O; βAla = NCCC(=O)O
# Legend:
# Assay in all cases: inhibition of tumour cell growth, NCI panel, 48 h
# HCC-2998 colon = system: HCC-2998 colon
# SK-MEL-5 melanoma = system: SK-MEL-5 melanoma
# HS 578T breast = system: HS 578T breast
# HL-60(TB) leukemia = system: HL-60(TB) leukemia
# COLO 205 colon = system: COLO 205 colon
# UO-31 renal = system: UO-31 renal
# MOLT-4 leukemia = system: MOLT-4 leukemia
# HCT-116 colon = system: HCT-116 colon
# ACHN renal = system: ACHN renal
# SNB-19 CNS = system: SNB-19 CNS
# RPMI-8226 leukemia = system: RPMI-8226 leukemia
# HOP-92 NSCLC = system: HOP-92 NSCLC
# OVCAR-8 ovarian = system: OVCAR-8 ovarian
# OVCAR-3 ovarian = system: OVCAR-3 ovarian
# BT-549 breast = system: BT-549 breast
# 786-0 renal = system: 786-0 renal
# NCI/ADR-RES ovarian = system: NCI/ADR-RES ovarian
# NCI-H460 lung = system: NCI-H460 lung
# K-562 leukemia = system: K-562 leukemia
# MDA-N = system: MDA-N
Structure (SMILES),TGI (HCC-2998 colon),TGI (SK-MEL-5 melanoma),TGI (HS 578T breast),TGI (HL-60(TB) leukemia),TGI (COLO 205 colon),TGI (UO-31 renal),TGI (MOLT-4 leukemia),TGI (HCT-116 colon),TGI (ACHN renal),TGI (SNB-19 CNS),TGI (RPMI-8226 leukemia),TGI (HOP-92 NSCLC),TGI (OVCAR-8 ovarian),TGI (OVCAR-3 ovarian),TGI (BT-549 breast),TGI (786-0 renal),TGI (NCI/ADR-RES ovarian),TGI (NCI-H460 lung),TGI (K-562 leukemia),TGI (MDA-N)
CC(=O)N(CCCCNC(=O)C(F)(F)F)CCCNC(=O)C(F)(F)F,> 100 µM,> 100 µM,> 100 µM,> 100 µM,> 100 µM,> 100 µM,> 100 µM,> 100 µM,> 100 µM,> 100 µM,> 100 µM,> 100 µM,> 100 µM,> 100 µM,> 100 µM,> 100 µM,> 100 µM,> 100 µM,> 100 µM,–
CCOC(=O)C(NC(=O)c1ccccc1)(Nc1ccc(S(=O)(=O)Nc2cc(C)nc(C)n2)cc1)C(F)(F)F (configuration not stated),–,> 100 µM,> 100 µM,> 100 µM,> 100 µM,> 100 µM,> 100 µM,> 100 µM,> 100 µM,> 100 µM,> 100 µM,> 100 µM,> 100 µM,> 100 µM,–,> 100 µM,> 100 µM,> 100 µM,> 100 µM,> 100 µM
COc1ccc(/C=C2\N=C(c3ccccc3)OC2=O)cc1OC(C)=O,> 100 µM,> 100 µM,> 100 µM,> 100 µM,> 100 µM,> 100 µM,26.1 µM,> 100 µM,> 100 µM,> 100 µM,> 100 µM,> 100 µM,> 100 µM,> 100 µM,> 100 µM,> 100 µM,> 100 µM,> 100 µM,> 100 µM,–
N=c1oc2ccccc2cc1C(=O)Nc1nccs1,> 100 µM,> 100 µM,> 100 µM,5.92 µM,45.6 µM,0.22 µM,22.1 µM,> 100 µM,26.8 µM,> 100 µM,50.5 µM,> 100 µM,> 92.4 µM,43.3 µM,> 100 µM,6.3 µM,> 100 µM,> 76.5 µM,> 100 µM,–
CCC(C)[C@@H]1NC(=O)[C@@H]2CCCN2C(=O)C(CC(O)CO)OC(=O)CCNC(=O)[C@H](C)N(C)C(=O)[C@H](C(C)C)N(C)C1=O (some centres not stated) (cyclo([Ile(3ξ)][NMeV][NMeA][βAla][X22]P)),–,> 100 µM,–,> 100 µM,> 100 µM,> 100 µM,> 100 µM,> 100 µM,–,> 100 µM,> 100 µM,> 100 µM,> 100 µM,> 100 µM,–,> 100 µM,–,> 100 µM,> 100 µM,–
CCn1c(O)c(C=Nc2ccccc2)s/c1=N/Nc1nc(-c2ccc(O)c(O)c2)cs1,–,> 100 µM,> 100 µM,6.04 µM,> 100 µM,> 100 µM,92.2 µM,> 100 µM,> 100 µM,> 100 µM,46.6 µM,> 100 µM,> 100 µM,49 µM,–,> 100 µM,> 100 µM,> 100 µM,26.5 µM,–
O=S(=O)(Oc1ccc2ccccc2c1-c1c(OS(=O)(=O)C(F)(F)F)ccc2ccccc12)C(F)(F)F,> 100 µM,> 100 µM,> 100 µM,> 100 µM,> 100 µM,> 100 µM,> 100 µM,> 100 µM,> 100 µM,> 100 µM,> 100 µM,34.2 µM,> 100 µM,> 100 µM,> 100 µM,> 100 µM,> 100 µM,> 100 µM,> 100 µM,–
Cc1ccc(S(=O)(=O)N/N=C2\CC(C)OC3=C2CCCCCC3)cc1 (configuration not stated),–,31.9 µM,47 µM,54.6 µM,37.1 µM,31.2 µM,55.9 µM,30.4 µM,32.8 µM,44.1 µM,82.5 µM,36.7 µM,45.2 µM,36 µM,–,32.3 µM,44.7 µM,> 100 µM,> 100 µM,> 100 µM
CSc1nc2nc(C(O)C(O)C(O)CO)cnc2c(=O)[nH]1 (configuration not stated),> 100 µM,> 100 µM,–,> 100 µM,> 100 µM,> 100 µM,> 100 µM,> 100 µM,> 100 µM,> 100 µM,> 100 µM,–,> 100 µM,> 100 µM,–,> 100 µM,–,> 100 µM,–,–
COC1=CC(=O)C2C(C1=O)C(c1ccc(Cl)cc1)[C@@H]2C (some centres not stated),> 100 µM,41.2 µM,–,55.7 µM,> 100 µM,63.6 µM,81.7 µM,33.7 µM,31.9 µM,80.3 µM,> 100 µM,54.8 µM,67.4 µM,> 100 µM,–,57.2 µM,–,75.6 µM,> 100 µM,–
COC(=O)/C(=N/NC(C)(C)C)C(C(=O)OC)C(=O)C(=O)Nc1nc2ccc([N+](=O)[O-])cc2s1 (configuration not stated),> 100 µM,> 100 µM,–,> 100 µM,> 100 µM,> 100 µM,> 100 µM,> 100 µM,> 100 µM,> 100 µM,> 100 µM,–,> 100 µM,> 100 µM,–,> 100 µM,–,> 100 µM,> 100 µM,–
COC(=O)C(Cc1nc2ccccc2[nH]c1=O)C(=O)C(=O)Nc1ccc(F)cc1 (configuration not stated),> 100 µM,> 100 µM,–,> 100 µM,> 100 µM,> 100 µM,> 100 µM,> 100 µM,> 100 µM,> 100 µM,–,56.4 µM,38.6 µM,> 100 µM,–,58.8 µM,–,> 100 µM,–,–
CCSc1nnc(-c2ccccc2)nc1Cc1ccc(OC)cc1,> 100 µM,–,–,> 100 µM,> 100 µM,> 100 µM,> 100 µM,> 100 µM,> 100 µM,> 100 µM,> 100 µM,> 100 µM,> 100 µM,> 100 µM,–,> 100 µM,–,> 100 µM,> 100 µM,–
